Test results from patent US8470851B2, “Substituted acetylenic imidazo[1,2-A]pyridine compounds as kinase inhibitors” (ARIAD Pharmaceuticals, Inc., priority 2005, dated 2013).

These molecules were tested against T1, BaF3 cells transfected with the Bcr-Abl T315I mutant (Homo sapiens, UniProt P00519, T315I, cells depend on it) (assay: Ba/F3 cell proliferation assay, Bcr-Abl T315I (CellTiter 96 AQueous One)). Settings: Ba/F3 cells expressing Bcr-Abl T315I, 3 days incubation; read-out: T315l cell proliferation.
T1 construct: fused on or other part: P11274 (Breakpoint cluster region protein)
Format: cell-based, murine
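Further: murine pro-B Ba/F3 line, tetrazolium turned into formazan and read by absorbance, compound dilution series, values as percent of DMSO-treated control, IC50 from fitted curves.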

GI50 [nM] | SMILES
< 1000 | Cc1cn(-c2cc(NC(=O)c3ccc(C)c(C#Cc4cnc5ccccn45)c3)cc(C(F)(F)F)c2)cn1
< 1000 | Cc1ccc(C(=O)Nc2ccc(CN3CCN(C(C)C)CC3)c(C(F)(F)F)c2)cc1C#Cc1cnc2cnccn12
< 1000 | Cc1ccc(C(=O)Nc2cc(-n3cnc(CCN4CCCC4)c3)cc(C(F)(F)F)c2)cc1C#Cc1cnc2ccccn12
< 1000 | Cc1ccc(C(=O)Nc2cc(-n3cnc(C#N)c3)cc(C(F)(F)F)c2)cc1C#Cc1cnc2cnccn12
< 1000 | Cc1ccc(C(=O)Nc2cc(-n3cnc(CN4CCCC4)c3)cc(C(F)(F)F)c2)cc1C#Cc1cnc2cnccn12
< 1000 | Cc1ccc(C(=O)Nc2ccc(CN3CCCC3)c(C(F)(F)F)c2)cc1C#Cc1cnc2cnccn12
< 1000 | Cc1ccc(C(=O)Nc2cc(Cn3ccnc3)cc(C(F)(F)F)c2)cc1C#Cc1cnc2ccccn12
< 1000 | Cc1ccc(C(=O)Nc2cc(CN3CCCC3)cc(C(F)(F)F)c2)cc1C#Cc1cnc2ccccn12
< 1000 | Cc1ccc(C(=O)Nc2ccc(Cn3ccnc3)c(C(F)(F)F)c2)cc1C#Cc1cnc2ccccn12
< 1000 | Cc1ccc(C(=O)Nc2cc(-n3cnc(C#N)c3)cc(C(F)(F)F)c2)cc1C#Cc1cnc2ccccn12
< 1000 | Cc1ccc(C(=O)Nc2cc(-n3ccnc3)cc(C(F)(F)F)c2)cc1C#Cc1cnc2c(Nc3cccc(C(N)=O)c3)cccn12
< 1000 | Cc1ccc(C(=O)Nc2cc(CN3CCOCC3)cc(C(F)(F)F)c2)cc1C#Cc1cnc2ccccn12
< 1000 | Cc1ccc(C(=O)Nc2ccc(CN3CC[C@H](N(C)C)C3)c(C(F)(F)F)c2)cc1C#Cc1cnc2cnccn12 (stereo in doubt)
< 1000 | Cc1ccc(C(=O)Nc2cc(C(C)(C)C)on2)cc1C#Cc1cnc2c(NC(N)=O)cccn12
< 1000 | CC(=O)Nc1ncnc2c(C#Cc3cc(C(=O)Nc4cc(C(F)(F)F)ccn4)ccc3C)cnn12
< 1000 | Cc1ccc(C(=O)Nc2cc(C(F)(F)F)ccn2)cc1C#Cc1cnc2c(N)cccn12
< 1000 | COC(=O)Nc1cccn2c(C#Cc3cc(C(=O)Nc4cc(C(F)(F)F)ccn4)ccc3C)cnc12
< 1000 | Cc1ccc(C(=O)Nc2cc(C(C)(C)C)on2)cc1C#Cn1cnc2c(NC3CC3)ncnc21
< 1000 | Cc1ccc(C(=O)Nc2cc(CN3CCCC3)cc(C(F)(F)F)c2)cc1C#Cc1cnc2cnccn12
< 1000 | Cc1ccc(C(=O)Nc2cc(C(F)(F)F)ccn2)cc1C#Cc1cnn2c(N)ncnc12
< 1000 | Cc1ccc(C(=O)Nc2ccc(CN3CCC(N(C)C)CC3)c(C(F)(F)F)c2)cc1C#Cc1cnc2cnccn12

GI50 [nM] | SMILES
< 1000 | CC(C)N1CCN(Cc2ccc(NC(=O)c3cccc(C#Cc4cnc5cnccn45)c3)cc2C(F)(F)F)CC1
< 1000 | CCN1CCN(Cc2ccc(NC(=O)c3ccc(C)c(C#Cc4cnc5cnccn45)c3)cc2C(F)(F)F)CC1
< 1000 | CN1CCN(Cc2ccc(NC(=O)c3ccc(Cl)c(C#Cc4cnc5ccccn45)c3)cc2C(F)(F)F)CC1
< 1000 | CN1CCN(Cc2ccc(NC(=O)c3cccc(C#Cc4cnc5ccccn45)c3)cc2C(F)(F)F)CC1
< 1000 | Cc1ccc(C(=O)Nc2cc(C(F)(F)F)ccn2)cc1C#Cc1cnc2c(Nc3ccc(S(N)(=O)=O)cc3)cccn12
< 1000 | Cc1ccc(C(=O)Nc2ccc(CN3CCN(C)CC3)c(C(F)(F)F)c2)cc1C#Cc1cnn2cccnc12
< 1000 | Cc1ccc(C(=O)Nc2cc(C(F)(F)F)ccn2)cc1C#Cc1cnc2c(Nc3ccc(S(C)(=O)=O)cc3)cccn12
< 1000 | Cc1ccc(C(=O)Nc2cc(C(F)(F)F)ccn2)cc1C#Cc1cnc2c(NC(=O)C3CCC3)cccn12
< 1000 | Cc1ccc(C(=O)Nc2ccc(Cn3ccnc3)c(C(F)(F)F)c2)cc1C#Cc1cnc2cnccn12
< 1000 | CN1CCN(Cc2ccc(NC(=O)c3ccc(F)c(C#Cc4cnc5cnccn45)c3)cc2C(F)(F)F)CC1
< 1000 | Cc1ccc(C(=O)Nc2cc(Cn3ccnc3)cc(C(F)(F)F)c2)cc1C#Cc1cnc2cnccn12
< 1000 | Cc1ccc(C(=O)Nc2ccc(OC3CCN(C)CC3)c(C(F)(F)F)c2)cc1C#Cc1cnc2cnccn12
< 1000 | Cc1ccc(C(=O)Nc2cc(C(F)(F)F)ccn2)cc1C#Cc1cnn2cccnc12
< 1000 | CNC(=O)Nc1cccn2c(C#Cc3cc(C(=O)Nc4cc(C(F)(F)F)ccn4)ccc3C)cnc12
< 1000 | Cc1ccc(C(=O)Nc2cc(C(F)(F)F)ccn2)cc1C#Cc1cnc2c(NC(=O)C3CC3)cccn12
< 1000 | CC(C)N1CCN(Cc2ccc(NC(=O)c3cncc(C#Cc4cnc5cnccn45)c3)cc2C(F)(F)F)CC1
< 1000 | CN1CCN(Cc2ccc(NC(=O)c3cccc(C#Cc4cnc5cnccn45)c3)cc2C(F)(F)F)CC1
< 1000 | Cc1ccc(C(=O)Nc2cc(C(F)(F)F)ccn2)cc1C#Cc1cnc2c(NC(=O)N(C)C)cccn12
< 1000 | Cc1ccc(C(=O)Nc2ccc(CN3CC[C@@H](O)C3)c(C(F)(F)F)c2)cc1C#Cc1cnc2ccccn12 (racemic)
< 1000 | CC(=O)Nc1cccn2c(C#Cc3cc(C(=O)Nc4cccc(C(F)(F)F)c4)ccc3C)cnc12
< 1000 | Cc1ccc(C(=O)Nc2cc(-n3ccnc3CN(C)C)cc(C(F)(F)F)c2)cc1C#Cc1cnc2cnccn12

GI50 [nM] | SMILES
< 1000 | Cc1ccc(C(=O)Nc2ccc(CN3CCC(N(C)C)CC3)c(C(F)(F)F)c2)cc1C#Cc1cnc2ccccn12
< 1000 | Cc1ccc(C(=O)Nc2ccc(CN3CCNCC3)c(C(F)(F)F)c2)cc1C#Cc1cnc2cnccn12
< 1000 | Cc1ccc(C(=O)Nc2cc(-n3ccnc3)cc(C(F)(F)F)c2)cc1C#Cc1cnn2cccnc12
< 1000 | Cc1ccc(C(=O)Nc2cc(-n3ccnc3)cc(C(F)(F)F)c2)cc1C#Cc1cnc2cnccn12
< 1000 | CC(=O)Nc1cccn2c(C#Cc3cc(C(=O)Nc4cc(C(F)(F)F)ccn4)ccc3C)cnc12
< 1000 | CN1CCN(Cc2ccc(NC(=O)c3ccc(F)c(C#Cc4cnc5ccccn45)c3)cc2C(F)(F)F)CC1
< 1000 | Cc1ccc(C(=O)Nc2ccc(CN3CCN(C)CC3)c(C(F)(F)F)c2)cc1C#Cc1cnn2c(N)ncnc12
< 1000 | Cc1ccc(C(=O)Nc2cc(C(F)(F)F)ccn2)cc1C#Cc1cnc2c(NC(N)=O)cccn12
< 1000 | Cc1ccc(C(=O)Nc2cc(-n3cnc(CCN4CCCC4)c3)cc(C(F)(F)F)c2)cc1C#Cc1cnc2cnccn12
< 1000 | Cc1ccc(C(=O)Nc2ccc(CN3CC[C@@H](N(C)C)C3)c(C(F)(F)F)c2)cc1C#Cc1cnc2cccnn12 (racemic)
< 1000 | Cc1ccc(C(=O)Nc2ccc(CN3CC[C@@H](N(C)C)C3)c(C(F)(F)F)c2)cc1C#Cc1cnc2cnccn12 (stereo in doubt)
< 1000 | Cc1ccc(C(=O)Nc2ccc(CN3CCOCC3)c(C(F)(F)F)c2)cc1C#Cc1cnc2cnccn12
< 1000 | Cc1ccc(C(=O)Nc2cc(CN3CCOCC3)cc(C(F)(F)F)c2)cc1C#Cc1cnc2cnccn12
< 1000 | CN1CCN(Cc2ccc(C(=O)Nc3cccc(C#Cc4cnc5cnccn45)c3)cc2C(F)(F)F)CC1
< 1000 | Cc1ccc(C(=O)Nc2cc(-n3ccnc3)cc(C(F)(F)F)c2)cc1C#Cc1cnc2c(NC(=O)OC(C)(C)C)cccn12
< 1000 | Cc1ccc(C(=O)Nc2cc(-n3ccnc3)cc(C(F)(F)F)c2)cc1C#Cc1cnc2c(NC(N)=O)cccn12
< 1000 | CC(C)(C)c1cc(NC(=O)c2cccc(C#Cc3cnc4ccccn34)c2)no1
< 1000 | CN1CCN(Cc2ccc(NC(=O)c3ccc(C#Cc4cnc5ccccn45)o3)cc2C(F)(F)F)CC1
< 1000 | Cc1ccc(C(=O)Nc2ccc(CN3CCNC(=O)C3)c(C(F)(F)F)c2)cc1C#Cc1cnc2ccccn12
